Experimental findings from article PMC12597562 (Molecular Pharmacology, 2025) are described below.

Data set [1] addresses T1, human DAT (Homo sapiens, UniProt Q01959).
T1 construct: gene SLC6A3; full-length codon-optimized human DAT with N-terminal mScarlet-I tag (subcloned from EYFP-DAT), stably expressed in TAAR1 KO HEK293 cells
The data set is described as follows: [3H]dopamine uptake inhibition, intact cells. It counts as cell-based.

For data set [2], the target named is T1, human DAT. The data set is described as follows: […]RTI-55 competition binding, cell membranes. Particulars: read-out: Inhibition of [^125I]RTI-55 Binding pKi ± SD (n) (converted).
Substrate in data set [3]: NCCc1ccc(O)c(O)c1
Description: cells, lysate or membranes. Particulars: TAAR1-/- DAT cells, vehicle pretreatment, 10 min uptake; labelled compound; n=4.

For the molecule `CCN(C[C@H]1COC(N)=N1)c1ccccc1` [RO5166017], the IC50 at human DAT [1] (read-out: Inhibition of [^3H]DA Uptake pIC50 ± SD (n) (converted)) was 17.4 µM. For the same molecule, the Ki at human DAT [2] was 21.9 µM.

With `CC[C@@H](C[C@H]1COC(N)=N1)c1ccccc1` [RO5256390], on human DAT [1] (20 nM [3H]DA, 10 min preincubation, 10 min uptake, 25 °C, Krebs-HEPES buffer, n=6), the “Inhibition of [^3H]DA Uptake pIC50 ± SD (n)” value worked out at 5.73 ± 0.23.

B1: human DAT (Homo sapiens) (protein)
chain: MSKSKCSVGLMSSVVAPAKEPNAVGPKEVELILVKEQNGVQLTSSTLTNPRQSPVEAQDRETWGKKIDFLLSVIGFAVDLANVWRFPYLCYKNGGGAFLVPYLLFMVIAGMPLFYMELALGQFNREGAAGVWKICPILKGVGFTVILISLYVGFFYNVIIAWALHYLFSSFTTELPWIHCNNSWNSPNCSDAHPGDSSGDSSGLNDTFGTTPAAEYFERGVLHLHQSHGIDDLGPPRWQLTACLVLVIVLLYFSLWKGVKTSGKVVWITATMPYVVLTALLLRGVTLPGAIDGIRAYLSVDFYRLCEASVWIDAATQVCFSLGVGFGVLIAFSSYNKFTNNCYRDAIVTTSINSLTSFSSGFVVFSFLGYMAQKHSVPIGDVAKDGPGLIFIIYPEAIATLPLSSAWAVVFFIMLLTLGIDSAMGGMESVITGLIDEFQLLHRHRELFTLFIVLATFLLSLFCVTNGGIYVFTLLDHFAAGTSILFGVLIEAIGVAWFYGVGQFSDDIQQMTGQRPSLYWRLCWKLVSPCFLLFVVVVSIVTFRPPHYGAYIFPDWANALGWVIATSSMAMVPIYAAYKFCSLPGSFREKLAYAIAPEKDRELVDRGEVRQFTLRHWLKV
Broadly, the Km is the concentration of substrate that gives half-maximal velocity. A word on the Vmax: it is the top rate of the reaction or transport when substrate is in excess. B1: in data set [3], the Km is 0.631 ± 0.26 µM and the Vmax stood at 1.63e-06 µmol/min/mg.
